# Test results: US8969563B2, “Calcium salt of pyrroloquinoline quinone” (Mitsubishi Gas Chemical Company, Inc., priority 2010, dated 2015)
# Counter-ions that a name gives are not always drawn.
# Key:
# [1] = tested on: Chinese hamster ovary cells (CHO-DHFR−); test: Absorption test using cells (cell growth promotion / retardation); format: cell-based; settings: 2-day culture; for Optimum cell growth concentration: Cell Counting Kit 8, absorbance 450 nm, concentration at which cell count is largest (about 5%) compared to without PQQ, tested 150 to 2.3 μg/mL; for Cell growth retarding concentration: concentration at which total cell count is decreased by about 10% compared to without PQQ
# Procedure: PQQ has effects of promoting cell growth and of retarding cell growth at a higher concentration on cultured animal cells. Based on these effects, change in the cell absorption was tested.
# Chinese hamster ovary cells (CHO-DHFR^−, Dainippon Sumitomo Pharma Co., Ltd.) were cultured in a medium (alpha-MEM+10% fetal bovine serum) containing 5% CO2 at 37° C. The cultured cells were added together with 100 μL of the medium to each well of the 96-well plate (IWAKI) so that the cell density per well is 6,000 cells/well, and culture was performed overnight. The culture solution was removed, and the medium having a predetermined test concentration was added thereto. After a 2-day culture, the medium was replaced, a Cell Counting Kit 8 (from DOJINDO LABORATORIES) was used to stain the cells for one hour, and measurement of absorbance was performed at 450 nm. The absorbance in this case is proportional to the cell number.
# As the test samples, the crystalline calcium salts of PQQ in Examples 1 and 2 above, and the disodium salt of PQQ or the raw material in Test Example 1, were used for testing after dilution by the medium. The test was duplicated for each sample, and the results were averaged.
# The concentration at which the cell count due to PQQ is largest (about 5%) compared to the case without PQQ is recorded as the optimum cell growth concentration. In addition, the concentration at which the total cell count is decreased by about 10% compared to the case without PQQ is recorded as the cell-growth retarding concentration.
# [2] = Elution test: amount of PQQ dissolved from the calcium salt with or without a chelating substance; format: physicochemical; settings: for Dissolved amount: added to water (1 mL), four hours at room temperature, centrifugation, absorption at 450 nm
# Procedure: Changes in the solubility of the insoluble salt due to the addition of a chelating substance were measured.
# [3] = Water solubility of the recovered solid (description); format: physicochemical; settings: dried solid
# [4] = Release of PQQ from the white calcium salt in solvents; format: physicochemical; settings: for Appearance: 40° C., five hours
# Procedure: After keeping each resultant mixture at 40° C. for five hours, centrifugation was performed to remove solids, and PQQ was analyzed on high performance liquid chromatography.
Compound,Optimum cell growth concentration [1] [µg/mL],Cell growth retarding concentration [1] [µg/mL],Dissolved amount [2] [%],"solubility of the calcium salt alone ([2]; water, no chelating substance)",water solubility [3],Appearance ([4]; Acetic acid 30 mM + Ammonium acetate 70 mM (pH 5)),Appearance ([4]; Dimethyl sulfoxide),Appearance ([4]; Na2HPO4 23.5 g/L NaH2PO4 5 g/L),"Appearance ([4]; PBS (GIBCO, pH 7.4))",Appearance ([4]; Simulated gastric fluid (pH 1.7)),release of calcium ions ([4]; neutral solution of phosphoric acid),release of calcium ions ([4]; simulated gastric fluid)
"O=C([O-])c1cc(C(=O)[O-])c2c(n1)C(=O)C(=O)c1cc(C(=O)O)[nH]c1-2.[Na+].[Na+] [Comparative Example 1, disodium salt of PQQ, reference compound]",75,150,–,–,–,–,–,–,–,–,–,–
"O=C(O)c1cc(C(=O)O)c2c(n1)C(=O)C(=O)c1cc(C(=O)O)[nH]c1-2 [Example 1, crystalline calcium salt of PQQ]",2.3,75,1,very low,poorly water-soluble,–,–,–,–,–,–,–
crystalline calcium salt of PQQ [Example 2],4.7,75,3,–,–,–,–,–,–,–,–,–
white calcium salt of PQQ [Example 15],–,–,–,–,–,White solid,Red solution,Red solution,Red solid,Red solid,easily released,difficult to be released
